According to patent US12581252B2, “Substituted pyrrolo[3,4-b]pyridines as PI3K-α inhibitors” (Relay Therapeutics, Inc., priority 2020, dated 2026):

Molecular target: H1047R PIK3CA enzyme (Homo sapiens, UniProt P42336, H1047R)
Experiment: ADP-Glo Biochemical PIK3CA Kinase Assay
Experimental: Compounds to be assayed were plated in 16 doses of 1:2 serial dilutions (20 nL volume each well) on a 1536-well plate, and the plate warmed to room temperature. […] To the well was added 1 μL of 200 μM ATP and 20 μM of diC8-PIP2 in Substrate Assay Buffer (50 mM HEPES pH7.4, 50 mM NaCl, 5 mM DTT and 0.03% CHAPS) to start the reaction, and the plate was shaken for 10 seconds, then spun briefly at 1500 rpm, and then incubated for 60 minutes at room temperature. The reaction was stopped by adding 2 μL of ADP-Glo reagent (Promega), and spinning briefly at 1500 rpm, and then incubating for 40 minutes. ADP-Glo Detection reagent (Promega) was added and the plate spun briefly at 1500 rpm, then incubated for 30 minutes.

H1047R PIK3CA enzyme, sequence (P42336 whole entry H1047R): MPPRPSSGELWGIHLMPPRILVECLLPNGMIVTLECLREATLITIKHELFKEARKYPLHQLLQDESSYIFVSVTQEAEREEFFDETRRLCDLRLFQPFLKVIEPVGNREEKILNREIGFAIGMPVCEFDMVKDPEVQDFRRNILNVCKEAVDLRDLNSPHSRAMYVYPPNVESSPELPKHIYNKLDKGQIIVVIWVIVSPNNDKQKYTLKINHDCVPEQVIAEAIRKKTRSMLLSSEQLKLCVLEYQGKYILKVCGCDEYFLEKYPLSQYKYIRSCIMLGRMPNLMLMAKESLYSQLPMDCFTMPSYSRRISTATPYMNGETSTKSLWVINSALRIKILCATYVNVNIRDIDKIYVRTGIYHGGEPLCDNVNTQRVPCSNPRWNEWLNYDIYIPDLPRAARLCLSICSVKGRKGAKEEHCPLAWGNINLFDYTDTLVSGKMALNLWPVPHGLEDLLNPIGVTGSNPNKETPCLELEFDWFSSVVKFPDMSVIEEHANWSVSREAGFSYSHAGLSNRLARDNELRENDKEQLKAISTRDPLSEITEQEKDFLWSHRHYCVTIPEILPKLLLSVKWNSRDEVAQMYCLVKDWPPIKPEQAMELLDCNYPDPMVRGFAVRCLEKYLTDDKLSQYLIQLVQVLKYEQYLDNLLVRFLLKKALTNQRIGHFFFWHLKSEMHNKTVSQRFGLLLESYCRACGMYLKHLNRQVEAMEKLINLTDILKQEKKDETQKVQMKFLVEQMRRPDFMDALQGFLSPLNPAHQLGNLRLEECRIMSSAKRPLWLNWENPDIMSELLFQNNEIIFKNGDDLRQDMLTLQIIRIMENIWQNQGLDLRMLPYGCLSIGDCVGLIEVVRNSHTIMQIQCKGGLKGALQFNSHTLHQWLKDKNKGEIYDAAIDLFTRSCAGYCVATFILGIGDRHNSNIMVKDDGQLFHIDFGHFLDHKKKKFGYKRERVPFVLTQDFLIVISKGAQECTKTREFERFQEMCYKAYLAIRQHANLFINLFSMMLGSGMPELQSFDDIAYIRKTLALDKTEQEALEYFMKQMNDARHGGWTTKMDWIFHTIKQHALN
H1047R PIK3CA enzyme, sequence (P27986 whole entry partner): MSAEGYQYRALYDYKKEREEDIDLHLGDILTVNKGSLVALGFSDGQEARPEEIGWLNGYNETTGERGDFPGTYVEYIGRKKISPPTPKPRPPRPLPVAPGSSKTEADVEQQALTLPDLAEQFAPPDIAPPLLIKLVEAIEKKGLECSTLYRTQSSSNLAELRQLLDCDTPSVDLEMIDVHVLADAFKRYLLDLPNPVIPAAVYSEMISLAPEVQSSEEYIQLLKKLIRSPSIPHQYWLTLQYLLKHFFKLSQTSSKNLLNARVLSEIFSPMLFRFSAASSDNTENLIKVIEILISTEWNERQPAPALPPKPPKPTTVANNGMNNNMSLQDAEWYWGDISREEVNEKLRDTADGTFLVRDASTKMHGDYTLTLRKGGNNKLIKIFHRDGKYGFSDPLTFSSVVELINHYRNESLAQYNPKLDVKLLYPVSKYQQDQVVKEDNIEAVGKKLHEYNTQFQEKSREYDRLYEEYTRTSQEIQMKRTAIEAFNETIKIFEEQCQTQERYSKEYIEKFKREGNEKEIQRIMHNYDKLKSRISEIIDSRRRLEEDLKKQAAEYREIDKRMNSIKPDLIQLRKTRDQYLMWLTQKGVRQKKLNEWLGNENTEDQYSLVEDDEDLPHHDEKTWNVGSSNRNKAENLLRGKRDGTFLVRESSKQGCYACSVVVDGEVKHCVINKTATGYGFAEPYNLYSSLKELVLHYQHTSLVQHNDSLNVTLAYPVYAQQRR

| SMILES | IC50 [µM] |
| --- | --- |
| Cc1ccccc1C1NC(=O)c2cc(C(O)CO)cc(NC(=O)c3csc4ccccc34)c21 (mixture of isomers) [Compound I-139, N-[6-(1,2-Dihydroxyethyl)-3-(2-methylphenyl)-1-oxo-2,3-dihydro-1H-isoindol-4-yl]-1-benzothiophene-3-carboxamide] | ≤ 0.1 |
| O=C1NC(c2cc(F)ccc2Cl)c2c(NC(=O)N3CCCC(C(F)(F)F)C3)cc(Br)cc21 (mixture of isomers) [Compound I-432] | 0.5 to 1 |
| O=C1NC(c2cc(F)ccc2Cl)c2c(NC(=O)C3CCCC(C(F)(F)F)C3)cc(Br)cc21 (mixture of isomers) [Compound I-1323] | 0.1 to 0.5 |
| CN1CC(COc2cc(NC(=O)c3cc(F)cc(C(F)(F)F)c3)c3c(c2)C(=O)NC3c2cc(F)ccc2Cl)CC1=O (mixture of isomers) [Compound I-1348] | ≤ 0.1 |
| CC1(C(=O)Nc2cc(Br)cc3c2C(c2cc(F)ccc2Cl)NC3=O)CCCC(C(F)(F)F)C1 (mixture of isomers) [Compound I-1358] | 0.1 to 0.5 |
| Cn1nccc1C(F)c1cc(NC(=O)c2cc(F)cc(C(F)(F)F)c2)c2c(c1)C(=O)NC2c1cc(F)ccc1Cl (mixture of isomers) [Compound I-1379] | ≤ 0.1 |
| CC(=O)N1CCCCC1C(=O)Nc1cc(-c2ccc3ncnn3c2)cc2c1C(c1cc(F)ccc1Cl)NC2=O (mixture of isomers) [Compound I-1804] | 10 to 100 |
| O=C1NC(c2cc(F)ccc2Cl)c2c(NC(=O)C3CCCC(C(F)(F)F)C3)cc(-c3ccc4ncnn4c3)cc21 (mixture of isomers) [Compound I-1816] | ≤ 0.1 |
| O=C1NC(c2cc(F)ccc2Cl)c2c(NC(=O)C3COCCN3)cc(-c3ccc4ncnn4c3)cc21 (mixture of isomers) [Compound I-1991] | 10 to 100 |
| O=C1NC(c2cc(F)ccc2Cl)c2c(NC(=O)C3CCCC(C(F)(F)F)N3)cc(-c3ccc4ncnn4c3)cc21 (mixture of isomers) [Compound I-1992] | 1 to 10 |
| COC1CCCC(C(=O)Nc2cc(-c3ccc4ncnn4c3)cc3c2C(c2cc(F)ccc2Cl)NC3=O)C1 (mixture of isomers) [Compound I-2037] | 10 to 100 |
| O=C1NC(c2cc(F)ccc2Cl)c2c(NC(=O)C3CNCC(C(F)(F)F)C3)cc(-c3ccc4ncnn4c3)cc21 (mixture of isomers) [Compound I-2051] | 10 to 100 |
| O=C1NC(c2cc(F)ccc2Cl)c2c(NC(=O)C3(O)CCCC(C(F)(F)F)C3)cccc21 (mixture of isomers) [Compound I-2088] | 10 to 100 |
| CC(c1nn[nH]c1C(=O)Nc1cccc2c1C(c1cc(F)ccc1Cl)NC2=O)C(F)(F)F (mixture of isomers) [Compound I-2180] | 10 to 100 |
| C=CC(CC(=O)Nc1cccc2c1C(c1cc(F)ccc1Cl)NC2=O)C(C)C(F)(F)F (mixture of isomers) [Compound I-2195] | 1 to 10 |
| CC(C(CO)CC(=O)Nc1cccc2c1C(c1cc(F)ccc1Cl)NC2=O)C(F)(F)F (mixture of isomers) [Compound I-2197] | 10 to 100 |
| O=C(Nc1cccc2c1C(C1CCCC(O)C1)NC2=O)c1cc(F)cc(C(F)(F)F)c1 (mixture of isomers) [Compound I-2224] | 10 to 100 |
| O=C(Nc1cccc2c1C(C1CCCC(O)C1)NC2=O)c1cc(F)cc(C(F)(F)F)c1 (mixture of isomers) [Compound I-2226] | 10 to 100 |
| O=C(Nc1cccc2c1C(C1CCCC(O)C1)NC2=O)c1cc(F)cc(C(F)(F)F)c1 (mixture of isomers) [Compound I-2227] | 10 to 100 |

| SMILES | IC50 [µM] |
| --- | --- |
| O=C1NC(c2cc(F)ccc2Cl)c2c(NC(=O)N3c4ccccc4C(O)C34CC4)cccc21 (mixture of isomers) [Compound I-2280] | 10 to 100 |
| O=C1NC(c2cc(F)ccc2Cl)c2c(NC(=O)C3CCc4ccccc4C3)cccc21 (mixture of isomers) [Compound I-2283] | 10 to 100 |
| O=C1NC(c2cc(F)ccc2Cl)c2c(NC(=O)N3CC(CO)c4ccccc43)cccc21 (mixture of isomers) [Compound I-2314] | 1 to 10 |
| O=C1NC(c2cc(F)ccc2Cl)c2c(NC(=O)C3CCCc4ccccc4C3)cccc21 (mixture of isomers) [Compound I-2375] | 10 to 100 |
| O=C1NC(c2cc(F)ccc2Cl)c2c(NC(=O)N3CC(O)c4cc(Cl)ccc43)cccc21 (mixture of isomers) [Compound I-2376] | 1 to 10 |
| CC(C)N1C[C@H](O)C[C@H]1C(=O)Nc1cccc2c1C(c1cc(F)ccc1Cl)NC2=O (mixture of isomers) [Compound I-2392] | 10 to 100 |
| CCC1C(C)CCN1C(=O)Nc1cccc2c1C(c1cc(F)ccc1Cl)NC2=O (mixture of isomers) [Compound I-2394] | 1 to 10 |
| CCC1CCCN1C(=O)Nc1cccc2c1C(c1cc(F)ccc1Cl)NC2=O (mixture of isomers) [Compound I-2395] | 1 to 10 |
| CC(C)C1CCCN1C(=O)Nc1cccc2c1C(c1cc(F)ccc1Cl)NC2=O (mixture of isomers) [Compound I-2396] | 1 to 10 |
| CC(N1C[C@H](O)C[C@H]1C(=O)Nc1cccc2c1C(c1cc(F)ccc1Cl)NC2=O)C(F)(F)F (mixture of isomers) [Compound I-2407] | 10 to 100 |
| N#C[C@H]1CCN(C(=O)Nc2cc(-c3ccc4ncnn4c3)cc3c2C(c2cc(F)ccc2Cl)NC3=O)C1 (mixture of isomers) [Compound I-2415] | 10 to 100 |
| N#C[C@@H]1CCN(C(=O)Nc2cc(-c3ccc4ncnn4c3)cc3c2C(c2cc(F)ccc2Cl)NC3=O)C1 (mixture of isomers) [Compound I-2416] | 10 to 100 |
| CC(C)C1CCN(C(=O)Nc2cccc3c2C(c2cc(F)ccc2Cl)NC3=O)C1 (mixture of isomers) [Compound I-2419] | 10 to 100 |
| CC(C1CCN(C(=O)Nc2cccc3c2C(c2cc(F)ccc2Cl)NC3=O)C1)C(F)(F)F (mixture of isomers) [Compound I-2421] | 10 to 100 |
| Cc1ccccc1C1NC(=O)c2cccc(NC(=O)N3CCNC(C(F)(F)F)C3)c21 (racemic) [Compound I-60] | 10 to 100 |
| Cc1ccccc1C1NC(=O)c2cc([C@@H](C)NC(=O)OC(C)(C)C)cc(NC(=O)c3csc4ccccc34)c21 (mixture of isomers) [Compound I-89] | 0.1 to 0.5 |
| Cc1ccccc1C1NC(=O)c2cc([C@@H](C)N)cc(NC(=O)c3csc4ccccc34)c21 (mixture of isomers) [Compound I-90] | ≤ 0.1 |
| O=C(Nc1cc(N[C@H]2C[C@@H](O)C2)cc2c1C(c1cc(F)ccc1Cl)NC2=O)c1cc(F)cc(C(F)(F)F)c1 (mixture of isomers) [Compound I-478] | ≤ 0.1 |
| O=C1NC(c2cc(F)ccc2Cl)c2c(NC(=O)N3CCCC(c4ccccc4)C3)cc(Br)cc21 (racemic) [Compound I-597] | 1 to 10 |

| SMILES | IC50 [µM] |
| --- | --- |
| O=C1NC(c2cc(F)ccc2Cl)c2c(NC(=O)N3CCC(c4ccccc4)C3)cc(Br)cc21 (racemic) [Compound I-598] | 1 to 10 |
| O=C1NC(c2cc(F)ccc2Cl)c2c(NC(=O)N3CC(C(F)(F)F)CC(C(F)(F)F)C3)cc(Br)cc21 (racemic) [Compound I-661] | 1 to 10 |
| O=C(Nc1cc(C2CCO2)cc2c1C(c1cc(F)ccc1Cl)NC2=O)c1cc(F)cc(C(F)(F)F)c1 (racemic) [Compound I-662] | 0.1 to 0.5 |
| CC(O)c1cc(NC(=O)c2cc(F)cc(C(F)(F)F)c2)c2c(c1)C(=O)NC2c1cc(F)ccc1Cl (racemic) [Compound I-664] | ≤ 0.1 |
| CC(O)Cc1cc(NC(=O)c2cc(F)cc(C(F)(F)F)c2)c2c(c1)C(=O)NC2c1cc(F)ccc1Cl (racemic) [Compound I-665] | ≤ 0.1 |
| CN1CCN(C(=O)Nc2cc(Br)cc3c2C(c2cc(F)ccc2Cl)NC3=O)CC1(C)C (racemic) [Compound I-685] | 10 to 100 |
| CC1CN(C(=O)Nc2cc(Br)cc3c2C(c2cc(F)ccc2Cl)NC3=O)CCN1C (racemic) [Compound I-686] | 10 to 100 |
| O=C1NC(c2cc(F)ccc2Cl)c2c(NC(=O)N3CC[C@H](F)[C@@H](F)C3)cc(Br)cc21 (mixture of isomers) [Compound I-720] | 10 to 100 |
| O=C(Nc1cc(N[C@@H]2CC[C@H]2O)cc2c1C(c1cc(F)ccc1Cl)NC2=O)c1cc(F)cc(C(F)(F)F)c1 (mixture of isomers) [Compound I-721] | ≤ 0.1 |
| O=C(Nc1cc(C2CCOC2)cc2c1C(c1cc(F)ccc1Cl)NC2=O)c1cc(F)cc(C(F)(F)F)c1 (racemic) [Compound I-778] | ≤ 0.1 |
| CO[C@@H]1CC[C@H]1Nc1cc(NC(=O)c2cc(F)cc(C(F)(F)F)c2)c2c(c1)C(=O)NC2c1cc(F)ccc1Cl (mixture of isomers) [Compound I-780] | ≤ 0.1 |
| COc1ccc([C@H](C)N2C(=O)c3cc(Br)cc(N)c3[C@H]2c2cc(F)ccc2Cl)cc1 (racemic) [Compound I-862] | 1 to 10 |
| COc1ccc([C@H](C)N2C(=O)c3cc(Br)cc(N)c3[C@@H]2c2cc(F)ccc2Cl)cc1 (racemic) [Compound I-863] | 1 to 10 |
| O=C(Nc1cc(O[C@@H]2COC[C@H]2O)cc2c1C(c1cc(F)ccc1Cl)NC2=O)c1cc(F)cc(C(F)(F)F)c1 (mixture of isomers) [Compound I-1192] | ≤ 0.1 |
| Cn1ccnc1-c1cc(NC(=O)c2cc(F)cc(C(F)(F)F)c2)c2c(c1)C(=O)NC2c1cc(F)ccc1Cl (racemic) [Compound I-1193] | 0.1 to 0.5 |
| O=C(Nc1cc(O[C@H]2CC[C@H]2O)cc2c1C(c1cc(F)ccc1Cl)NC2=O)c1cc(F)cc(C(F)(F)F)c1 (mixture of isomers) [Compound I-1210] | ≤ 0.1 |
| O=C(Nc1cc(OC2CCCOC2)cc2c1C(c1cc(F)ccc1Cl)NC2=O)c1cc(F)cc(C(F)(F)F)c1 (racemic) [Compound I-1239] | ≤ 0.1 |
| N#CCC(O)c1cc(NC(=O)c2cc(F)cc(C(F)(F)F)c2)c2c(c1)C(=O)NC2c1cc(F)ccc1Cl (racemic) [Compound I-1243] | ≤ 0.1 |
